From PMC8213057, “Targeting ALK2: An Open Science Approach to Developing Therapeutics for the Treatment of Diffuse Intrinsic Pontine Glioma” (Journal of Medicinal Chemistry, 2020)

Columns and labels:
[1] = target: T1, MUSK (Homo sapiens, UniProt O15146); experiment: biochemical; details: read-out: % enzyme activity, 1 μM; Run 1, Run 2
T1 sequence (O15146 24-869): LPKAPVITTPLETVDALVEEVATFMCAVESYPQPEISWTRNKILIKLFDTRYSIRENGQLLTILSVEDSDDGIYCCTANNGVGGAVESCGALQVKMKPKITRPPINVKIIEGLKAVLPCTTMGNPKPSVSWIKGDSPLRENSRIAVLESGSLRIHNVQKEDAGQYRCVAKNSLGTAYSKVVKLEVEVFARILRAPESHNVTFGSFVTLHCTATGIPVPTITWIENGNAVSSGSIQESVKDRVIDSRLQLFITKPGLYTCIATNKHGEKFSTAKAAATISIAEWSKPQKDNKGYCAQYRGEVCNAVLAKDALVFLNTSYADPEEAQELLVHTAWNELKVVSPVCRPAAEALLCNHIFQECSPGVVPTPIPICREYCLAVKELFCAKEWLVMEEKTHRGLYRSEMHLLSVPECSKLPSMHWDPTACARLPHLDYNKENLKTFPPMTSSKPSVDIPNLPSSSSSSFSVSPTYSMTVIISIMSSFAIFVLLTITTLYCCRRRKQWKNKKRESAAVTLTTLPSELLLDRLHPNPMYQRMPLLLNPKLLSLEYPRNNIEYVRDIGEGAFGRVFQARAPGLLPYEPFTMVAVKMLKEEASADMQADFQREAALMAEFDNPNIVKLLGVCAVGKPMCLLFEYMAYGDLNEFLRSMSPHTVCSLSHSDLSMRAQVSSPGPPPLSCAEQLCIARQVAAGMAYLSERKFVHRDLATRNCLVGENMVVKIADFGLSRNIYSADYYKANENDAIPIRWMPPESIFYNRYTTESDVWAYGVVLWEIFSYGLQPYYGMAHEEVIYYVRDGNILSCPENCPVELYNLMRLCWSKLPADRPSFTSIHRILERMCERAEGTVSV

[2] = target: ERBB2/HER2 (Homo sapiens, UniProt P04626); experiment: biochemical; details: read-out: % enzyme activity, 1 μM; Run 1, Run 2
Sequence of ERBB2/HER2 (P04626 23-1255): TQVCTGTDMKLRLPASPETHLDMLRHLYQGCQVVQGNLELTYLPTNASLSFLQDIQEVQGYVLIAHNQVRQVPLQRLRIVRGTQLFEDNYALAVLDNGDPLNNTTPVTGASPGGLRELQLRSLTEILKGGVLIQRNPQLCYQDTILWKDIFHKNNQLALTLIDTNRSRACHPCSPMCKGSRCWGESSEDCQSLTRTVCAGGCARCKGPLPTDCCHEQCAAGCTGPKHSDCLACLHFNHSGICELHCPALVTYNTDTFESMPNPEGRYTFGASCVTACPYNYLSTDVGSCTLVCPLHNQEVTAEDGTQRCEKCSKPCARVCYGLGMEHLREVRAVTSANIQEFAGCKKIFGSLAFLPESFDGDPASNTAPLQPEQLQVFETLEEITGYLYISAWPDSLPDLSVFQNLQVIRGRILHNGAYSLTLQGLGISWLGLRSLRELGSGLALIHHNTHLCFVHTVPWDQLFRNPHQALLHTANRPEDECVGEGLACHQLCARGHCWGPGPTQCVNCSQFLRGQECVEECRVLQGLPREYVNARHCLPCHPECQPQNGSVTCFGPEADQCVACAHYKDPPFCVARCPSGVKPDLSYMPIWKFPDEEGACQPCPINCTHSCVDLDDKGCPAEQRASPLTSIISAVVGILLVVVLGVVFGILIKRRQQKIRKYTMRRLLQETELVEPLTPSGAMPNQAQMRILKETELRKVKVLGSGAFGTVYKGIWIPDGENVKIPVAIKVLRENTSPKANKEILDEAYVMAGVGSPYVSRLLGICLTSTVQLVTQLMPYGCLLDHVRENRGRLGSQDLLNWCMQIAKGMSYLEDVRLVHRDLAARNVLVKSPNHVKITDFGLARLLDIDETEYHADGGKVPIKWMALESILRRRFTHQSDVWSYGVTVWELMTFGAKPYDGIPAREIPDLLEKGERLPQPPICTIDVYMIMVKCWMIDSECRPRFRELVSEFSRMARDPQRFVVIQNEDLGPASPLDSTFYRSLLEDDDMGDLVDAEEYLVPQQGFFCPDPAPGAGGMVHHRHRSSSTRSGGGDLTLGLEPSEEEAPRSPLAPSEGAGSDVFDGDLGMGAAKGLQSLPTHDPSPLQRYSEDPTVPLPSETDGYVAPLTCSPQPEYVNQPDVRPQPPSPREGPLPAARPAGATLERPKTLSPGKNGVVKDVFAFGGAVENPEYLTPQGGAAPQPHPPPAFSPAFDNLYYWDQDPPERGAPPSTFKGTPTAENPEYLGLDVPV

[3] = target: T2, TSSK3/STK22C (Homo sapiens, UniProt Q96PN8); details: 1 μM; Run 1, Run 2
T2 sequence (Q96PN8 1-268): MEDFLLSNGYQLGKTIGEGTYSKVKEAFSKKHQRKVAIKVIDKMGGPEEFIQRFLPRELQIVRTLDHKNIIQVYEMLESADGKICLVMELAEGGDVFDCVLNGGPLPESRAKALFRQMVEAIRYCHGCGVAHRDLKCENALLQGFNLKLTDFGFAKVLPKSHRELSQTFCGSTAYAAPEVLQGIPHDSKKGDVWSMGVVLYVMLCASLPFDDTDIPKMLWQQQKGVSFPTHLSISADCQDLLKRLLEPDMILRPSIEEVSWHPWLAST

[4] = target: PIM2 (Homo sapiens, UniProt Q9P1W9); details: 1 μM; Run 1, Run 2
Sequence of PIM2 (Q9P1W9 whole entry): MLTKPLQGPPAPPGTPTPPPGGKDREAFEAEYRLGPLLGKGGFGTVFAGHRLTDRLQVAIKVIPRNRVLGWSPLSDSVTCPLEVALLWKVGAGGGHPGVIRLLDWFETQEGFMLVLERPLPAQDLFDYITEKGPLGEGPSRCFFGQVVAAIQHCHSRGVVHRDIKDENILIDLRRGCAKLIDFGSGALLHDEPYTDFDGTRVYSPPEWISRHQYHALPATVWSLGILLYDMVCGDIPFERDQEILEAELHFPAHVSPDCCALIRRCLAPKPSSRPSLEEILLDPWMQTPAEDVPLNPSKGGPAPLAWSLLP

[5] = target: T3, EPHA1 (Homo sapiens, UniProt P21709); experiment: biochemical; details: read-out: % enzyme activity, 1 μM; Run 1, Run 2
T3 sequence (P21709 26-976): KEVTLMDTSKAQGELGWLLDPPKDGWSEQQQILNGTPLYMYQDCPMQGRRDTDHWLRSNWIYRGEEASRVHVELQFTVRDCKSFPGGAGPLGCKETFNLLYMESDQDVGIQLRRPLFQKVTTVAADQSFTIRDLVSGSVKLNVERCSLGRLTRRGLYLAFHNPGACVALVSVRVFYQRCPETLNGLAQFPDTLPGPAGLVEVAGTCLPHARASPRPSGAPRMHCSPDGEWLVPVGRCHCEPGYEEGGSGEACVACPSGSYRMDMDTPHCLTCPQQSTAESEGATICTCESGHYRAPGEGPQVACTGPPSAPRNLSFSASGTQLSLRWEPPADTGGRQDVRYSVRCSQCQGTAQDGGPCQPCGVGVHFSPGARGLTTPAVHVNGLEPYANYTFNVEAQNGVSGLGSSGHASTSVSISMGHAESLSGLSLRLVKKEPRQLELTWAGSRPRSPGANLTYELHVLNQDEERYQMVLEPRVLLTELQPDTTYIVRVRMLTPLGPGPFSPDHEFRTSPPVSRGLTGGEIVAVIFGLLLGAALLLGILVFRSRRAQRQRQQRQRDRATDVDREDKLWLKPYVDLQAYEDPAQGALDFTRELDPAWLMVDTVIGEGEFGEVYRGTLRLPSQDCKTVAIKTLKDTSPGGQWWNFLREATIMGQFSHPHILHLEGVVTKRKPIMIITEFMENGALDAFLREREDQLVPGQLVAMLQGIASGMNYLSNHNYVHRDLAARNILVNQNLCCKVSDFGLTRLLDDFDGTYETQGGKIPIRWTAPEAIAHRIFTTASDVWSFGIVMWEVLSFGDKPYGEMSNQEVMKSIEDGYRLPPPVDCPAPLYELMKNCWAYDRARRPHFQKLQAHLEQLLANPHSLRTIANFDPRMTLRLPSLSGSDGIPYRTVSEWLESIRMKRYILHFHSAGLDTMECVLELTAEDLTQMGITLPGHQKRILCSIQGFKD

[6] = target: T4, SNRK (Homo sapiens, UniProt Q9NRH2); details: 1 μM; Run 1, Run 2
T4 sequence (Q9NRH2 1-765): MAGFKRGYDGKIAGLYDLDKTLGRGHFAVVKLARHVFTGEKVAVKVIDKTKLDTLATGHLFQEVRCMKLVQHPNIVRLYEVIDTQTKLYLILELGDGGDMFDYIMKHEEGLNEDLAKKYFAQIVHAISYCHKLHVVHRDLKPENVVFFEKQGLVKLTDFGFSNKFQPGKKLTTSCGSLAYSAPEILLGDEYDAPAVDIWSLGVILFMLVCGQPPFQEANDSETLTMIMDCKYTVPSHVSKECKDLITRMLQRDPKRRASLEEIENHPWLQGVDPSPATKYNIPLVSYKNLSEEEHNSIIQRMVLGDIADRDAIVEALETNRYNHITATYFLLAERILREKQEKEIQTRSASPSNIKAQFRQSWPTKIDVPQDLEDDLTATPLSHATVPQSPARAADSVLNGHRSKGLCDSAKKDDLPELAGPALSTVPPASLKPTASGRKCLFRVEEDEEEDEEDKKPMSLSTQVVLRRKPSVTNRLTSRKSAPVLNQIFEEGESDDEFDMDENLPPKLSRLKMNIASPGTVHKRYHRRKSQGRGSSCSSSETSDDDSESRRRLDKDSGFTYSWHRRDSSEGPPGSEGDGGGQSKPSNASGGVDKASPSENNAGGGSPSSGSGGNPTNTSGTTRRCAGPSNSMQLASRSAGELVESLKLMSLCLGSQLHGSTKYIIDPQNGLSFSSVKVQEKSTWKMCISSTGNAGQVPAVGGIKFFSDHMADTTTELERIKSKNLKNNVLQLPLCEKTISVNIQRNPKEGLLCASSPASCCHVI

| SMILES | remaining activity at 1 µM [1] [%] | remaining activity at 1 µM [2] [%] | % enzyme activity [3] [%] | % enzyme activity [4] [%] | remaining activity at 1 µM [5] [%] | % enzyme activity [6] [%] |
| --- | --- | --- | --- | --- | --- | --- |
| COc1cc(-c2cncc(-c3ccc(N4CCN(C)CC4)cc3)c2C)cc(F)c1C(N)=O [Compound 26a, 2-Fluoro-6-methoxy-4-(4-methyl-5-(4-(4-methylpiperazin-1-yl)phenyl)pyridin-3-yl)benzamide] | 92.8 | 89.7 | 96.02 | 95.51 | 97.5 | 104.94 |
| COc1cc(-c2cncc(-c3ccc(N4C[C@@H](C)N(C)[C@@H](C)C4)cc3)c2C)cc(F)c1C(N)=O [Compound 26c, 2-Fluoro-6-methoxy-4-(4-methyl-5-(4-((3R,5S)-3,4,5-trimethylpiperazin-1-yl)phenyl)pyridin-3-yl)benzamide] | 92.2 | 96.8 | 95.64 | 98.82 | 93.3 | 97.75 |
